The values that follow come from the supplement of paper PMC10307832.

Each structure is given as a SMILES string.

In the first experiment the test system is NCI-H2170. In words: relative viability (nuclei count vs DMSO), 5 days (fraction); higher = more cells survive. The following applies: first compound 4 µM. In outline: (§1)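 Each reported value is a median over duplicate plates. It expresses relative viability: treated-well nuclei count divided by vehicle-well nuclei count. Lung cancer cell lines in 1536-well plates were dosed by pin tool a day after seeding, alone with one drug or with a fixed anchor-drug dose plus five library-drug doses (not always all listed) in √10 steps, and nuclei were counted after 5 days.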
For the molecule `Clc1ccc(Nc2nnc(Cc3ccncc3)c3ccccc23)cc1` [Vatalanib] + Nc1nc2[nH]cc(CCc3ccc(C(=O)N[C@@H](CCC(=O)O)C(=O)O)cc3)c2c(=O)[nH]1 [Pemetrexed] (partner 0.2 µM), the relative viability stood at 0.261.

A further experiment deals with PC-3 [JPC-3]. Described as above. The following applies: first compound 0.04 µM. In outline: as §1
The molecule `COc1cc(N2CCC(C(N)=O)CC2)ccc1Nc1nc(N)c(Cl)c(Nc2ccccc2S(=O)(=O)C(C)C)n1` [HG-5-88-01] + N=C(N)NC(=N)NCCc1ccccc1 [Phenformin] (partner 250 µM) had a relative viability of 0.48.
For the molecule `Clc1ccc(Nc2nnc(Cc3ccncc3)c3ccccc23)cc1` [Vatalanib] + COc1cccc2cc(-c3nc([C@H]4CC[C@H](C(=O)O)CC4)n4ncnc(N)c34)[nH]c12 [OSI-027] (partner 0.5 µM), the relative viability came out at 0.752.
`Clc1ccc(Nc2nnc(Cc3ccncc3)c3ccccc23)cc1` [Vatalanib] + N=C(N)NC(=N)NCCc1ccccc1 [Phenformin] (partner 250 µM) came in with a relative viability of 0.456.
Consider `Clc1ccc(Nc2nnc(Cc3ccncc3)c3ccccc23)cc1` [Vatalanib] + Nc1nc2[nH]cc(CCc3ccc(C(=O)N[C@@H](CCC(=O)O)C(=O)O)cc3)c2c(=O)[nH]1 [Pemetrexed] (partner 0.2 µM), for which the relative viability turned out to be 1.02.

The same experiment, now with this note: first compound 0.1265 µM.
`COc1cc(N2CCC(C(N)=O)CC2)ccc1Nc1nc(N)c(Cl)c(Nc2ccccc2S(=O)(=O)C(C)C)n1` [HG-5-88-01] + N=C(N)NC(=N)NCCc1ccccc1 [Phenformin] (partner 250 µM): the relative viability was 0.457.
With `Clc1ccc(Nc2nnc(Cc3ccncc3)c3ccccc23)cc1` [Vatalanib] + COc1cccc2cc(-c3nc([C@H]4CC[C@H](C(=O)O)CC4)n4ncnc(N)c34)[nH]c12 [OSI-027] (partner 0.5 µM), the relative viability was 0.698.
With `Clc1ccc(Nc2nnc(Cc3ccncc3)c3ccccc23)cc1` [Vatalanib] + N=C(N)NC(=N)NCCc1ccccc1 [Phenformin] (partner 250 µM), the relative viability worked out at 0.465.
`Clc1ccc(Nc2nnc(Cc3ccncc3)c3ccccc23)cc1` [Vatalanib] + Nc1nc2[nH]cc(CCc3ccc(C(=O)N[C@@H](CCC(=O)O)C(=O)O)cc3)c2c(=O)[nH]1 [Pemetrexed] (partner 0.2 µM): the relative viability came to 0.943.

Still in this experiment, the particulars now being: first compound 0.4 µM.
As for `COc1cc(N2CCC(C(N)=O)CC2)ccc1Nc1nc(N)c(Cl)c(Nc2ccccc2S(=O)(=O)C(C)C)n1` [HG-5-88-01] + N=C(N)NC(=N)NCCc1ccccc1 [Phenformin] (partner 250 µM), the relative viability is 0.488.
With `Clc1ccc(Nc2nnc(Cc3ccncc3)c3ccccc23)cc1` [Vatalanib] + COc1cccc2cc(-c3nc([C@H]4CC[C@H](C(=O)O)CC4)n4ncnc(N)c34)[nH]c12 [OSI-027] (partner 0.5 µM), the relative viability came out at 0.771.
Regarding `Clc1ccc(Nc2nnc(Cc3ccncc3)c3ccccc23)cc1` [Vatalanib] + N=C(N)NC(=N)NCCc1ccccc1 [Phenformin] (partner 250 µM), the relative viability came out at 0.456.
Turning to `Clc1ccc(Nc2nnc(Cc3ccncc3)c3ccccc23)cc1` [Vatalanib] + Nc1nc2[nH]cc(CCc3ccc(C(=O)N[C@@H](CCC(=O)O)C(=O)O)cc3)c2c(=O)[nH]1 [Pemetrexed] (partner 0.2 µM), the relative viability turned out to be 0.803.

The experiment is the same for the next values; noted with them: first compound 1.265 µM.
On to `COc1cc(N2CCC(C(N)=O)CC2)ccc1Nc1nc(N)c(Cl)c(Nc2ccccc2S(=O)(=O)C(C)C)n1` [HG-5-88-01] + N=C(N)NC(=N)NCCc1ccccc1 [Phenformin] (partner 250 µM), for which the relative viability was 0.461.
Turning to `Clc1ccc(Nc2nnc(Cc3ccncc3)c3ccccc23)cc1` [Vatalanib] + COc1cccc2cc(-c3nc([C@H]4CC[C@H](C(=O)O)CC4)n4ncnc(N)c34)[nH]c12 [OSI-027] (partner 0.5 µM), the relative viability worked out at 0.733.
As for `Clc1ccc(Nc2nnc(Cc3ccncc3)c3ccccc23)cc1` [Vatalanib] + N=C(N)NC(=N)NCCc1ccccc1 [Phenformin] (partner 250 µM), the relative viability is 0.493.
`Clc1ccc(Nc2nnc(Cc3ccncc3)c3ccccc23)cc1` [Vatalanib] + Nc1nc2[nH]cc(CCc3ccc(C(=O)N[C@@H](CCC(=O)O)C(=O)O)cc3)c2c(=O)[nH]1 [Pemetrexed] (partner 0.2 µM) showed a relative viability of 0.456.

Staying with this experiment, now noted: first compound 4 µM.
`COc1cc(N2CCC(C(N)=O)CC2)ccc1Nc1nc(N)c(Cl)c(Nc2ccccc2S(=O)(=O)C(C)C)n1` [HG-5-88-01] + N=C(N)NC(=N)NCCc1ccccc1 [Phenformin] (partner 250 µM) had a relative viability of 0.39.
Same read-out and setting: for `Clc1ccc(Nc2nnc(Cc3ccncc3)c3ccccc23)cc1` [Vatalanib] + COc1cccc2cc(-c3nc([C@H]4CC[C@H](C(=O)O)CC4)n4ncnc(N)c34)[nH]c12 [OSI-027] (partner 0.5 µM) the value was 0.672; for `Clc1ccc(Nc2nnc(Cc3ccncc3)c3ccccc23)cc1` [Vatalanib] + N=C(N)NC(=N)NCCc1ccccc1 [Phenformin] (partner 250 µM), 0.508.
`Clc1ccc(Nc2nnc(Cc3ccncc3)c3ccccc23)cc1` [Vatalanib] + Nc1nc2[nH]cc(CCc3ccc(C(=O)N[C@@H](CCC(=O)O)C(=O)O)cc3)c2c(=O)[nH]1 [Pemetrexed] (partner 0.2 µM): the relative viability was 0.964.

A further experiment deals with SK-MES-1. The experiment is described as above. The conditions noted are these: first compound 0.04 µM. Put shortly: as §1
For `COc1cc(N2CCC(C(N)=O)CC2)ccc1Nc1nc(N)c(Cl)c(Nc2ccccc2S(=O)(=O)C(C)C)n1` [HG-5-88-01] + N=C(N)NC(=N)NCCc1ccccc1 [Phenformin] (partner 250 µM), the relative viability came out at 0.665.
On the same count and under the same terms, under `Clc1ccc(Nc2nnc(Cc3ccncc3)c3ccccc23)cc1` [Vatalanib] + COc1cccc2cc(-c3nc([C@H]4CC[C@H](C(=O)O)CC4)n4ncnc(N)c34)[nH]c12 [OSI-027] (partner 0.5 µM) stands 0.634.
`Clc1ccc(Nc2nnc(Cc3ccncc3)c3ccccc23)cc1` [Vatalanib] + N=C(N)NC(=N)NCCc1ccccc1 [Phenformin] (partner 250 µM): the relative viability worked out at 0.659.
In turn, `Clc1ccc(Nc2nnc(Cc3ccncc3)c3ccccc23)cc1` [Vatalanib] + Nc1nc2[nH]cc(CCc3ccc(C(=O)N[C@@H](CCC(=O)O)C(=O)O)cc3)c2c(=O)[nH]1 [Pemetrexed] (partner 0.2 µM) registered a relative viability of 0.905.

Staying with this experiment, now noted: first compound 0.1265 µM.
With `COc1cc(N2CCC(C(N)=O)CC2)ccc1Nc1nc(N)c(Cl)c(Nc2ccccc2S(=O)(=O)C(C)C)n1` [HG-5-88-01] + N=C(N)NC(=N)NCCc1ccccc1 [Phenformin] (partner 250 µM), the relative viability was 0.646.
Consider `Clc1ccc(Nc2nnc(Cc3ccncc3)c3ccccc23)cc1` [Vatalanib] + COc1cccc2cc(-c3nc([C@H]4CC[C@H](C(=O)O)CC4)n4ncnc(N)c34)[nH]c12 [OSI-027] (partner 0.5 µM), for which the relative viability is 0.588.
`Clc1ccc(Nc2nnc(Cc3ccncc3)c3ccccc23)cc1` [Vatalanib] + N=C(N)NC(=N)NCCc1ccccc1 [Phenformin] (partner 250 µM) had a relative viability of 0.638.
Regarding `Clc1ccc(Nc2nnc(Cc3ccncc3)c3ccccc23)cc1` [Vatalanib] + Nc1nc2[nH]cc(CCc3ccc(C(=O)N[C@@H](CCC(=O)O)C(=O)O)cc3)c2c(=O)[nH]1 [Pemetrexed] (partner 0.2 µM), the relative viability was 0.925.
